Consider 1 compound from article PMC7835349 (Communications Biology, 2021).

One data set concerns platelets. As to the kind of experiment: Platelet count in rats. In kind it is in vivo. From the text: Supplementary Figure 7. Effect of AZD4320 and AZD4320-dendrimer conjugates on platelet count in rats. Data for dendrimers was collected from the same rats for which cardiovascular data were acquired (see Fig. 4a and b). Data for AZD4320 was collected from a non-cardiovascular study. Each symbol represent data from an individual rat. Colours representing each compound and dose are shown on the figure.
(1 picture or pasted object on this page, not shown here)

A further data set can be described thus: Aqueous solubility. As to conditions: aqueous buffers at physiological pH. In kind it is physicochemical.
The subject of another data set is cleaved caspase-3 (CC3). The data set is described as follows: Cleaved caspase-3 immunohistochemistry of RS4;11 tumours. In kind it is in vivo, C.B-17 SCID mouse. As to conditions: RS4;11 tumours, 1, 5 and 24 h post dose. The method, then: Formalin fixed paraffin embedded (FFPE) slides were cut on a rotary microtome at 4 µm and placed onto Superfrost plus slides (VWR) dried thoroughly, and then baked for 20 min in an oven at 60 °C. Slides were then stained on a Ventana Discovery XT using a CCI standard protocol and DAB Map Kit (Ventana cat # 760-124). The slides were then incubated in the primary CC3 (Cell Signaling Technology) antibody at 100µL per slide of a 1:50 dilution for 1 h. The secondary antibody was a biotinylated goat anti-rabbit from Vector Labs (PK-6101) made according to manufacturer’s instructions and put in an auto-dispense container. The slides were incubated in the secondary antibody for 30 min and then counterstained with Hematoxylin (Ventana 760-2021) for 4 min and blued with bluing reagent (Ventana 760-2037) for 4 min. After the Ventana run was complete, slides were taken off the machine, rinsed in reaction buffer, dehydrated, cleared and mounted with permount. Digital slide images were acquired at 20 x magnification using the Aperio Scanscope XT (Vista, CA).

Values joined by “and” are separate entries in the source; they are usually repeats but may differ in a detail not shown here. Equal entries are not always repeated.

Regarding `CN(CCO)CCC(CSc1ccccc1)Nc1ccc(S(=O)(=O)NC(=O)c2ccc(N3CCC(C(O)c4ccccc4-c4ccc(Cl)cc4)CC3)cc2)cc1S(=O)(=O)C(F)(F)F` (stereo not shown) [AZD4320], the “Platelet count, individual rat” value in the data set with platelets (10mg/kg, Day 2 (3h post dose), 10 mg/kg) is 31 10^9/L and 28 10^9/L and 46 10^9/L and 13 10^9/L. The Platelets post-dose with platelets (rat, Dose 10 mg/kg (AZD4320 equivalent 10 for AZD4320, 3 for conjugates)) is given as 30 109/l. Moreover, the solubility (as a rule, the concentration that dissolves in the medium under given conditions) in the data set “Aqueous solubility” was under 1 µg/mL. In addition, the “cleaved caspase-3 induction by IHC” value with cleaved caspase-3 (CC3) was “robust cleaved caspase induction”.
